In article PMC12064818, “A general assay platform to study protein pharmacology using ligand-dependent structural dynamics” (Nature Communications, 2025):
Where two headings read alike, the source gives them in different places.

Assays:
[1] = target: FLuc-C-HiBiT (firefly luciferase) (Photinus pyralis, UniProt P08659, form not given/L550V); experiment: SDR assay, FLuc-C-HiBiT; settings: SDR max. response, clade S
NLuc = target: T1, NLuc (Oplophorus gracilirostris, UniProt Q9GV45, A31E/A60N/A81I/F95D/I117V/K70R/L54V/L99Q/M102K/N193R/P142E/Q151K/Q38R/Q45L/V71I/Y165I); type: biochemical; settings: - ATP
T1 construct: His tag (inferred from IMAC purification); made in house; host or cells: E. coli
In short: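 Test compounds added to 1 nM NLuc in PBS with 0.05% IGEPAL, ± ATP. Nano-Glo reagent added and incubated 10 min before luminescence read.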

P. pyralis FLuc = P. pyralis FLuc (Photinus pyralis, UniProt P08659); experiment: FLuc enzymatic luminescence assay, P. pyralis FLuc; type: biochemical; settings: FLuc enzymatic assay; for IC50: read-out: IC50 or SDR50 (mM) FLuc E
In short: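 Runs with and without 10 µM ATP: compounds were pre-incubated with FLuc (1–10 nM, PBS pH 7.4) at ambient temperature, light-protected, for 30–60 min. Luminescence was imaged 5 min after adding 10 µM D-luciferin (final). Inhibition was scaled between DMSO neutral and no-enzyme controls.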

[2] = target: FLuc-C-NLuc (firefly luciferase) (Photinus pyralis, UniProt P08659, form not given/L550V); experiment: SDR assay, FLuc-C-NLuc; settings: - ATP
FLuc-C-HiBiT = target: T2, FLuc-C-HiBiT (Photinus pyralis, UniProt P08659); experiment: biochemical; settings: enzyme activity, 10 uM ATP; read-out: IC50 or SDR50 (mM) / FLuc E
T2 construct: firefly luciferase with C-terminal HiBiT tag, E. coli expressed
T2 sequence (P08659 whole entry, looked up): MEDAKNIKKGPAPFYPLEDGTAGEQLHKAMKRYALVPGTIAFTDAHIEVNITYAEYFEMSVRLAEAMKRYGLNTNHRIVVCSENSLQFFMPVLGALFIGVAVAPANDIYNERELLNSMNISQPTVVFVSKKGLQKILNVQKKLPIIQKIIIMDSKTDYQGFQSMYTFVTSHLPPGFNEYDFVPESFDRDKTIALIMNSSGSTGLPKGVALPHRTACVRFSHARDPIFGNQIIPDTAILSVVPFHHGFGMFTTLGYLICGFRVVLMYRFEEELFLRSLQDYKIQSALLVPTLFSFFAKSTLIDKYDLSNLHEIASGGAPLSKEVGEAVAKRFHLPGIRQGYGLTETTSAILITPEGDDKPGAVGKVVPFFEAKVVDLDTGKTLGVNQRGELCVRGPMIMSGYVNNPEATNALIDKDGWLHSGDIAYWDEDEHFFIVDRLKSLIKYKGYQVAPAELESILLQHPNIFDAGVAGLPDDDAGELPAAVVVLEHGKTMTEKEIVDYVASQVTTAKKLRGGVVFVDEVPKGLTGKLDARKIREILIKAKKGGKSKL

T1 sequence (Q9GV45 other isoform, or with tags, fused parts or gaps with the stated changes): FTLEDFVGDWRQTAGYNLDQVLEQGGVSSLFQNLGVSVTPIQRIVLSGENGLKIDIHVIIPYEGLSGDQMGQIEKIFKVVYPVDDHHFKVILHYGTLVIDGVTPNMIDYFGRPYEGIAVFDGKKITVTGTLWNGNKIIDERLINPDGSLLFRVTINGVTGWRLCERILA
Sequence of FLuc-C-HiBiT (firefly luciferase) (P08659 2-550 L550V, form open): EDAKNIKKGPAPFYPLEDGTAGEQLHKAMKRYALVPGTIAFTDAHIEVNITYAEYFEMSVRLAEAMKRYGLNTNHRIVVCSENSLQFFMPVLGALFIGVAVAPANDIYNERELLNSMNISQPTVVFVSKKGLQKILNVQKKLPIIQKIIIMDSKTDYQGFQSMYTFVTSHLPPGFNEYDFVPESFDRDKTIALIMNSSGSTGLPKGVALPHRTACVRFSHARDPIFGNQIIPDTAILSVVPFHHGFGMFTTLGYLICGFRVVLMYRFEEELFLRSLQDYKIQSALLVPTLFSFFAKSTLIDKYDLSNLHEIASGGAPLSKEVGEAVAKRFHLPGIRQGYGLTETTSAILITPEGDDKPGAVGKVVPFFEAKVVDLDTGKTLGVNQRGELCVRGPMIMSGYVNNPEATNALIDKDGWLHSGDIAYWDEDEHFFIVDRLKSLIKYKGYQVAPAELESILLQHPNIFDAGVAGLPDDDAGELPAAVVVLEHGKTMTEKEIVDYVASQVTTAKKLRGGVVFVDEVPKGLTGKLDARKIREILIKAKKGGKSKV
Sequence of FLuc-C-NLuc (firefly luciferase) (P08659 2-550 L550V, form open): as above
Sequence of P. pyralis FLuc (P08659 whole entry): as the sequence (P08659 whole entry, looked up) above

Structure (SMILES) | % Activity (max response, + ATP) [1] [%] | % Activity (max response, - ATP) [1] [%] | Efficacy (%) NLuc (- ATP) (NLuc) [%] | pIC50 or pSDR50 FLuc E (P. pyralis FLuc) | Efficacy (%) FLuc E (P. pyralis FLuc; Clade S follow-up) [%] | IC50 (P. pyralis FLuc) [mM] | Efficacy (%) FLuc-C-NLuc SDR (-ATP) [2] [%] | IC50 (FLuc-C-HiBiT) [mM] | pIC50 or pSDR50 FLuc E (P. pyralis FLuc; Clade S follow-up) | IC50 (P. pyralis FLuc; Clade S follow-up) [mM]
CCCCNC(=O)C1CCN(C(=O)c2ncn3c2COC(c2ccccc2)C3)CC1 (stereo not shown) [NCGC00449772-01] | 357.97 | 0.00 | 0.00 | 5.11 | -88.46 | 0.00784 | 0.00 | 0.00624 |  | 
Cc1cc(C)cc(NC(=O)C2CCN(C(=O)c3ncn4c3COC(c3ccccc3)C4)CC2)c1 (stereo not shown) [NCGC00449905-01] | 375.38 | 0.00 | 0.00 |  | -86.91 |  | 0.00 | 0.00313 | 5.46 | 0.0035
O=C(Nc1ccc(F)cc1)C1CCN(C(=O)c2ncn3c2COC(c2ccccc2)C3)CC1 (stereo not shown) [NCGC00449915-01] | 357.60 | 0.00 | 0.00 |  | -91.87 |  | 0.00 | 0.00176 | 5.91 | 0.00124
CC1CCC(NC(=O)C2CCN(C(=O)c3ncn4c3COC(c3ccccc3)C4)CC2)CC1 (stereo not shown) [NCGC00449768-01] | 387.83 | 0.00 | 0.00 | 5.71 | -93.28 | 0.00197 | 0.00 | 0.00248 |  | 
O=C(NCC1CC1)C1CCN(C(=O)c2ncn3c2COC(c2ccccc2)C3)CC1 (stereo not shown) [NCGC00449799-01] | 355.70 | 0.00 | 0.00 | 5.11 | -97.90 | 0.00784 | 0.00 | 0.007 |  | 
O=C(NCc1ccc2c(c1)OCO2)C1CCN(C(=O)c2ncn3c2COC(c2ccccc2)C3)CC1 (stereo not shown) [NCGC00449781-01] | 220.59 | 0.00 | 0.00 | 5.51 | -80.20 | 0.00312 | 0.00 | 0.007 |  | 
Cc1cccc(NC(=O)C2CCN(C(=O)c3ncn4c3COC(c3ccccc3)C4)CC2)c1 (stereo not shown) [NCGC00449902-01] | 372.05 | 0.00 | 0.00 |  | -97.06 |  | 0.00 | 0.00248 | 5.66 | 0.00221
O=C(NCc1cc(F)ccc1F)C1CCN(C(=O)c2ncn3c2COC(c2ccccc2)C3)CC1 (stereo not shown) [NCGC00449804-01] | 321.30 | 16.31 | 0.00 | 5.41 | -84.67 | 0.00393 | 0.00 | 0.00313 |  | 
O=C(Nc1ccc(Cl)cc1)C1CCN(C(=O)c2ncn3c2COC(c2ccccc2)C3)CC1 (stereo not shown) [NCGC00449917-01] | 361.85 | 0.00 | 0.00 |  | -91.81 |  | 0.00 | 0.00176 | 5.81 | 0.00157
COc1ccc(NC(=O)C2CCN(C(=O)c3ncn4c3COC(c3ccccc3)C4)CC2)cc1 (stereo not shown) [NCGC00449910-01] | 319.33 | 0.00 | 0.00 |  | -79.86 |  | 0.00 | 0.00785 | 5.06 | 0.0088
CCOc1ccccc1CNC(=O)C1CCN(C(=O)c2ncn3c2COC(c2ccccc2)C3)CC1 (stereo not shown) [NCGC00449779-01] | 223.68 | 0.00 | 0.00 | 5.21 | -109.28 | 0.00623 | 0.00 | 0.00313 |  | 
Cc1ccc(NC(=O)C2CCN(C(=O)c3ncn4c3COC(c3ccccc3)C4)CC2)cc1 (stereo not shown) [NCGC00449903-01] | 343.11 | 0.00 | 0.00 |  | -93.84 |  | 0.00 | 0.00176 | 5.61 | 0.00248
CC(NC(=O)C1CCN(C(=O)c2ncn3c2COC(c2ccccc2)C3)CC1)c1ccc(F)cc1 (stereo not shown) [NCGC00449793-01] | 272.56 | 0.00 | 0.00 | 5.16 | -92.83 | 0.00699 | 0.00 | 0.00495 |  | 
O=C(Nc1ccccc1)C1CCN(C(=O)c2ncn3c2COC(c2ccccc2)C3)CC1 (stereo not shown) [NCGC00449901-01] | 354.42 | 0.00 | 0.00 |  | -101.51 |  | 0.00 | 0.00157 | 5.86 | 0.0014
Cc1ccc(C2Cn3cnc(C(=O)N4CCC(C(=O)NCc5ccco5)CC4)c3CO2)cc1 (stereo not shown) [NCGC00449893-01] | 104.01 | 0.00 | 0.00 |  | -75.71 |  | 0.00 | 0.00881 | 5.01 | 0.00988
O=C(Nc1ccc(F)c(F)c1)C1CCN(C(=O)c2ncn3c2COC(c2ccccc2)C3)CC1 (stereo not shown) [NCGC00449916-01] | 236.10 | 8.48 | 0.00 |  | -98.00 |  | 0.00 | 0.000989 | 6.11 | 0.00078
COc1ccccc1CNC(=O)C1CCN(C(=O)c2ncn3c2COC(c2ccccc2)C3)CC1 (stereo not shown) [NCGC00449776-01] | 209.84 | 0.00 | 0.00 | 5.66 | -78.77 | 0.00221 | 0.00 | 0.00624 |  | 
